This test has as its system Pyricularia oryzae. Kind of test: Antifungal activity against Pyricularia oryzae assessed as inhibition of spore germination. Type of test: functional. The note with it: read-out: ED50 (the source's name).

Converted amounts (≈) assume the structure as drawn.

For `CC1(C)COC2=C(C1)C(=O)c1ccccc1C2=O`, the EC50 came to 0.4 mg/L (≈ 1.65 µM).

The record behind these values is ChEMBL document CHEMBL1147343, “Isolation and identification of an antifungal naphthopyran derivative from Rhinacanthus nasutus” (1993).
